Where two headings read alike, the source gives them in different places.

The target in assay [1] is PDE4B (aa 152-484, Uniprot ID Q07343) (Homo sapiens (Human), UniProt Q07343). The experiment in a line: PDE4 SPA assay (scintillation proximity assay). Type of assay: biochemical. The following applies: read-out: PDE4B2 IC50. An outline of the steps: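 Scintillation proximity read-out after a 30 min room-temperature reaction of ~81.6 pM PDE4B catalytic fragment (aa 152-484) with 1 μM tritiated/unlabeled cAMP, pH 7.5 Tris buffer with MgCl2 and Brij 35. Compound given ~10 min beforehand, 4-fold dilutions, ~2% DMSO; IC50 from four-parameter logistic curve.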
Sequence of PDE4B (aa 152-484, Uniprot ID Q07343) (Q07343 324-656): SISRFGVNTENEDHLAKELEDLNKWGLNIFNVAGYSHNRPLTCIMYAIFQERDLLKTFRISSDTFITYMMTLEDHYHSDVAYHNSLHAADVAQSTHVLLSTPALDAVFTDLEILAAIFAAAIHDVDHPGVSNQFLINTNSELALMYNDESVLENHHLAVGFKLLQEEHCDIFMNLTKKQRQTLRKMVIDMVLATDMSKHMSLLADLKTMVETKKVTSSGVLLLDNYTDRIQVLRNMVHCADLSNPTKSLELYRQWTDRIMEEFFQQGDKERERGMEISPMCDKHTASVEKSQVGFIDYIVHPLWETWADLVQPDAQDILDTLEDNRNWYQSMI
For orientation: Scintillation proximity formats need no separation of bound from free tracer.

A further assay concerns IFNγ. The experiment in a line: Cytokine assay: IFNγ release from PHA-L stimulated human PBMCs. The format is cell-based. The method in brief:
(§1)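 Cytokines IL-4, IL-13 and IFNγ quantified by HTRF after 48 h, 37 °C culture of human PBMCs activated with PHA-L at 3.5 μg/mL final. Test compound, 4-fold dilutions from approximately 10 μM in 0.25% DMSO, was added briefly before stimulation; IC50 derived by four-parameter logistic regression.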

For another assay, the system named is IL-4. The experiment in a line: Cytokine assay: IL-4 release from PHA-L stimulated human PBMCs. The following applies: read-out: IL4 IC50. Type of assay: cell-based. The method in brief: as §1
The next assay has as its system IL-13. The experiment in a line: Cytokine assay: IL-13 release from PHA-L stimulated human PBMCs. The format is cell-based. The following applies: read-out: IL13 IC50. An outline of the steps: as §1

In the case of `CCCOc1c(OC)ccc(-c2cccc(C3=CB(O)OC3)c2)c1C#N` [Example 43, 3′-(2-hydroxy-2,5-dihydro-1,2-oxaborol-4-yl)-4-methoxy-3-propoxy-[1,1′-biphenyl]-2-carbonitrile], the IC50 (as a rule, the midpoint of a concentration-inhibition curve) was determined as 8.23 nM in assay [1]; 76 nM in the assay with IFNγ (Homo sapiens, PBMC); 233 nM with IL-4 (Homo sapiens, PBMC); 10000 nM in the assay with IL-13 (Homo sapiens, PBMC).
Regarding `CCOc1cc(-c2cncc(C3COB(O)C3)c2)cc(F)c1OC` (stereo not drawn) [Example 44, 4-(5-(3-ethoxy-5-fluoro-4-methoxyphenyl)pyridin-3-yl)-1,2-oxaborolan-2-ol], the IC50 in assay [1] turned out to be 2.5 nM; in the assay with IFNγ (Homo sapiens, PBMC), 1.34 nM; with IL-4 (Homo sapiens, PBMC), 7.22 nM; in the assay on IL-13 (Homo sapiens, PBMC), 167 nM.
As for `CCOc1cc(-c2cncc(C3COB(O)C3)c2)c(F)cc1OC` (stereo not drawn) [Example 46, 4-(5-(5-ethoxy-2-fluoro-4-methoxyphenyl)pyridin-3-yl)-1,2-oxaborolan-2-ol], the IC50 amounted to 3.46 nM in assay [1]; 3.77 nM in the assay with IFNγ (Homo sapiens, PBMC); 11.8 nM in the assay on IL-4 (Homo sapiens, PBMC); 317 nM with IL-13 (Homo sapiens, PBMC).
The corresponding values for `CCOc1cc(-c2cncc(C3COB(O)C3)c2)c(Cl)cc1OC` (stereo not drawn) [Example 47, 4-(5-(2-chloro-5-ethoxy-4-methoxyphenyl)pyridin-3-yl)-1,2-oxaborolan-2-ol] are 3.01 nM, 1.54 nM, 4.11 nM and 143 nM.
The corresponding values for `CCCOc1nc(-c2cncc(C3COB(O)C3)c2)c(F)cc1OC` (stereo not drawn) [Example 48, 4-(3-fluoro-5-methoxy-6-propoxy-[2,3′-bipyridin]-5′-yl)-1,2-oxaborolan-2-ol] are 0.12 nM, 0.98 nM, 0.82 nM and 252 nM.
Taken in the same sequence, the figures for `CCCOc1cc(-c2cncc(C3COB(O)C3)c2)cnc1OC` (stereo not drawn) [Example 51, 4-(6′-methoxy-5′-propoxy-[3,3′-bipyridin]-5-yl)-1,2-oxaborolan-2-ol] were 1.27 nM, 1.64 nM, 3.73 nM and 337 nM.
On to `CCOc1cc(-c2cc(C3COB(O)C3)cnc2C)ccc1OC` (stereo not drawn) [Example 52, 4-(5-(3-ethoxy-4-methoxyphenyl)-6-methylpyridin-3-yl)-1,2-oxaborolan-2-ol], for which the IC50 in assay [1] is 9.25 nM; in the assay with IFNγ (Homo sapiens, PBMC) it was 5.74 nM; with IL-4 (Homo sapiens, PBMC), 14.6 nM; in the assay on IL-13 (Homo sapiens, PBMC) it was 2610 nM.
Taken in the same sequence, the figures for `CCOc1cc(-c2cncc(C3COB(O)C3)c2C)ccc1OC` (stereo not drawn) [Example 53, 4-(5-(3-ethoxy-4-methoxyphenyl)-4-methylpyridin-3-yl)-1,2-oxaborolan-2-ol] were 1.41 nM, 0.6 nM, 4.87 nM and 115 nM.
The corresponding values for `CCCOc1cc(-c2nc(C)cc(C3COB(O)C3)n2)ccc1OC` (stereo not drawn) [Example 54, 4-(2-(4-methoxy-3-propoxyphenyl)-6-methylpyrimidin-4-yl)-1,2-oxaborolan-2-ol] are 7.77 nM, 4.2 nM, 5.58 nM and 1490 nM.
`CCCOc1cc(-c2nc(C3COB(O)C3)cc(C(F)(F)F)n2)ccc1OC` (stereo not drawn) [Example 55, 4-(2-(4-methoxy-3-propoxyphenyl)-6-(trifluoromethyl)pyrimidin-4-yl)-1,2-oxaborolan-2-ol]: the IC50 turned out to be 2.21 nM in assay [1], 2.27 nM with IFNγ, 3.94 nM in the assay on IL-4 and 576 nM in the assay on IL-13.
As to `CCOc1cc(-c2cncc(C3COB(O)C3)n2)ccc1OC` (stereo not drawn) [Example 56, 4-(6-(3-ethoxy-4-methoxyphenyl)pyrazin-2-yl)-1,2-oxaborolan-2-ol], the IC50 in assay [1] was 2.81 nM; in the assay with IFNγ (Homo sapiens, PBMC), 3.62 nM; with IL-4 (Homo sapiens, PBMC) it was 68 nM; with IL-13 (Homo sapiens, PBMC) it was 446 nM.
For the molecule `CCCOc1cc(-c2nc(CO)cc(C3COB(O)C3)n2)ccc1OC` (stereo not drawn) [Example 57, 4-(6-(hydroxymethyl)-2-(4-methoxy-3-propoxyphenyl)pyrimidin-4-yl)-1,2-oxaborolan-2-ol], the IC50 in assay [1] was found to be 10.2 nM; in the assay with IFNγ (Homo sapiens, PBMC) it was 2.29 nM; in the assay on IL-4 (Homo sapiens, PBMC) it was 7.54 nM; in the assay on IL-13 (Homo sapiens, PBMC) it was 239 nM.
For `CCOc1cc(-c2nc(C3COB(O)C3)cs2)ccc1OC` (stereo not drawn) [Example 58, 4-(2-(3-ethoxy-4-methoxyphenyl)thiazol-4-yl)-1,2-oxaborolan-2-ol], the IC50 in assay [1] came out at 0.72 nM; with IFNγ (Homo sapiens, PBMC) it was 1.81 nM; in the assay on IL-4 (Homo sapiens, PBMC), 163 nM; in the assay on IL-13 (Homo sapiens, PBMC) it was 103 nM.
The corresponding values for `CCCOc1nc(-c2cncc(C3COB(O)C3)c2)ccc1OC` (stereo not drawn) [Example 60, 4-(5-methoxy-6-propoxy-[2,3′-bipyridin]-5′-yl)-1,2-oxaborolan-2-ol] are 0.34 nM, 0.53 nM, 2.04 nM and 308 nM.
The corresponding values for `COc1ccc(-c2cccc(C3COB(O)C3)c2)cc1OCCF` (stereo not drawn) [Example 63, 4-(3′-(2-fluoroethoxy)-4′-methoxy-[1,1′-biphenyl]-3-yl)-1,2-oxaborolan-2-ol] are 1.62 nM, 2.75 nM, 57.9 nM and 312 nM.
Take `COc1ccc(-c2cncc(C3COB(O)C3)c2)cc1OC1CSC1` (stereo not drawn) [Example 68, 4-(5-(4-methoxy-3-(thietan-3-yloxy)phenyl)pyridin-3-yl)-1,2-oxaborolan-2-ol]: the IC50 in assay [1] was determined as 0.47 nM; in the assay on IFNγ (Homo sapiens, PBMC), 1.5 nM; with IL-4 (Homo sapiens, PBMC), 4.85 nM; in the assay on IL-13 (Homo sapiens, PBMC) it was 369 nM.
Regarding `CCOc1cc(-c2cncc(C3COB(O)C3)c2)c(C)cc1OC` (stereo not drawn) [Example 69, 4-(5-(5-ethoxy-4-methoxy-2-methylphenyl)pyridin-3-yl)-1,2-oxaborolan-2-ol], the IC50 in assay [1] worked out at 4.39 nM; with IFNγ (Homo sapiens, PBMC) it was 3.84 nM; in the assay on IL-4 (Homo sapiens, PBMC) it was 6.51 nM; in the assay with IL-13 (Homo sapiens, PBMC) it was 373 nM.
As for `CCOc1cc(-c2nc(C3COB(O)C3)ns2)ccc1OC` (stereo not drawn) [Example 72, 4-(5-(3-ethoxy-4-methoxyphenyl)-1,2,4-thiadiazol-3-yl)-1,2-oxaborolan-2-ol], the IC50 in assay [1] was 0.85 nM; in the assay with IFNγ (Homo sapiens, PBMC), 6.21 nM; in the assay on IL-4 (Homo sapiens, PBMC) it was 103 nM; in the assay with IL-13 (Homo sapiens, PBMC), 375 nM.
Turning to `CCOc1c(OC)ccc(-c2cncc(C3COB(O)C3)c2)c1F` (stereo not drawn) [Example 73, 4-(5-(3-ethoxy-2-fluoro-4-methoxyphenyl)pyridin-3-yl)-1,2-oxaborolan-2-ol], the IC50 in assay [1] was 2.19 nM; in the assay with IFNγ (Homo sapiens, PBMC) it was 1.66 nM; in the assay on IL-4 (Homo sapiens, PBMC), 49.9 nM; in the assay with IL-13 (Homo sapiens, PBMC), 384 nM.
The corresponding values for `COc1ccc(-c2cccc(C3COB(O)C3)c2)cc1OC(C)C` (stereo not drawn) [Example 75, 4-(3′-isopropoxy-4′-methoxy-[1,1′-biphenyl]-3-yl)-1,2-oxaborolan-2-ol] are 4.52 nM, 5.98 nM, 125 nM and 395 nM.
As to `CCCOc1cc(-c2nc(CO)cc(C3COB(O)C3)n2)ccc1OC` (stereo not drawn) [Example 76, 4-(6-(hydroxymethyl)-2-(4-methoxy-3-propoxyphenyl)pyrimidin-4-yl)-1,2-oxaborolan-2-ol], the IC50 is 10 nM in assay [1], 2.17 nM in the assay on IFNγ, 5.75 nM in the assay on IL-4 and 403 nM in the assay with IL-13.

(Values after patent US11559538B2, “Substituted 1,2-oxaborolan-2-ols as PDE4 inhibitors” (Pfizer Inc., priority 2018, dated 2023).)
